Assay results taken from patent publication US20240108702A1, “Use Of Naturally Occurring Cyclic Peptides For Treatment Of SARS-COV-2 Infection” (The University of Southern California, priority 2021, published 2024).
Where two headings read alike, the source gives them in different places. Where a SMILES comes first, the peptide text is derived from it. Bridges are numbered along the chain shown (N, C = ends).

Key:
[1] = rats
[2] = Single-dose i.v. bolus PK study in mice; assay type: in vivo, CD-1 mice
Protocol: Mouse studies: All procedures and protocols involving the use of animals were reviewed and approved by the University of Southern California (USC) IACUC (protocol #20538). Briefly, male (31.7-37.7 g) and female (25.2-35.6 g) CD-1 mice (Charles River Laboratories) were administered a single 5 mg/kg i.v. bolus injection of Peptide 1 (SEQ ID NO. 1) into the lateral tail vein. A total of 24 mice were separated into six groups (n=2/sex/group), with each group assigned to a single, pre-determined time point. Blood samples were collected at 0.25, 1, 2, 4, 8, and 24 h post-dose via terminal cardiac puncture. The collected samples were centrifuged to separate the plasma and stored at −80° C. until analysis.
Bioanalytical analysis: Clarified plasma samples from mice were directly diluted into 5% formic acid/5% acetonitrile. Quantitative analysis of Peptide 1 (SEQ ID NO. 1) was performed by LC-MS/MS with reverse-phase liquid chromatography (XBridge™ BEH phenyl 3.5 μm 3×100 mm column, Waters #186003328) on an Acquity™ H-Class UPLC (Waters) coupled to a Xevo™ TQ-S tandem electrospray mass spectrometry running MassLynx™ V4.1 (Waters). Quantitative mass spectroscopy was performed by multiple-reaction monitoring transition 417.32>517.21, with the area under the curve determined by TargetLynx™ (Waters). A synthetic theta defensin-like peptide was used as an internal standard (IS). The lower limit of quantification (LLOQ) of the assay was 1 ng/mL. Intra- and inter-assay precision (percent coefficient of variation [CV]) was ≤3%, and intra and interassay accuracy (% relative error) was ≤5%. Plasma Peptide 1 (SEQ ID NO. 1) concentration analyses for rats and cynomolgus monkey studies were performed at MicroConstants (San Diego, CA) by HPLC using a Mac-Mod™ Analytical ACE C4 column. The mobile phase was nebulized using heated nitrogen in Z-Spray source/interface set to electrospray positive ionization mode, and the compound was detected using MS/MS (LLOQ=10.0 ng/mL). Details of the method are summarized in the MicroConstants method No. MN20038. Clarified plasma samples from a serially sampled vervet were quantified by ultra-performance liquid chromatography Waters Acquity H-Class UPLC. […] Peptide 1 (SEQ ID NO. 1) peak and mass confirmation was performed on post PDA eluent using a Micromass Quattro Ultima™ mass spectrometer with MassLynx™ 4.1 (Waters). The lower limit of quantitation (LLOQ) ranged from 10-30 ng/mL (determined by sample background) to an upper limit of 50 ug/mL. RTD-2 (10 ug/mL) was used as an internal standard. Intra- and interassay precision (% coefficient of variation [CV]) was ≤3%, and intra and interassay accuracy (% relative error) was ≤5%.
Pharmacokinetic analysis: Non-compartmental analysis (NCA) was performed using Phoenix WinNonlin™ (version 8.3.1, Certara USA, Inc.; Princeton NJ) to determine the PK parameters in mice, rats, cynomolgus monkeys, and the vervet. Nominal sampling times were used in the analysis, and data below the lower limit of quantification of the assay were excluded from the analysis. The maximum plasma concentration (Cmax) was determined from visual inspection of the data. In addition, the following parameters were calculated: terminal elimination rate constant (λz), area under the curve extrapolated to infinity (AUC0-∞), area under the curve to dosing interval (AUCτ), mean residence time (MRT), clearance (CL), and volume of distribution at steady state (Vss). AUC was calculated using the linear up, log down method, and the λz was calculated using up to the last four data points of the log-linear terminal phase of the concentration-time profile. Due to sparsely sampled data in mice and rats, the sparse sampling calculation methodology in Phoenix WinNonlin™ was used, which generated a single estimate without standard error for all parameters, except for Cmax. For rats and cynomolgus monkeys, all parameters were calculated using sampling times relative to the beginning of the i.v. infusion.

TMPRSS2 = TMPRSS2 (Homo sapiens, UniProt O15393); assay: Cellular TMPRSS2 inhibition assay in Calu3 cells; assay type: cell-based; design: endogenous in cells; host or cells: Calu3 (Calu-3) cells
Protocol: TMPRSS2 inhibition assays. Peptides (0-50 μg/ml) were tested for their inhibitory activities against TMPRSS2 in cellular assays using Vero E6 cells, Caco-2 cells, or Calu-3 cells using standard conditions. TMPRSS2 activity was assayed in real time for 120 min by monitoring the cleavage of the TMPRSS2 substrate, Boc-Leu-Gly-Arg-AMC. Following the 2 h enzyme assay, cells were evaluated for viability using the CellTiter-Glo cellular toxicity assay.

in vivo [3] = conditions: both, Sprague-Dawley, rat, iv
in vivo [4] = conditions: both, Sprague-Dawley, rat, iv; remark: listed apart in the source
[5] = both sexes, CD-1, mouse, plasma, iv, single 5 mg/kg i.v. bolus

TMPRSS2, sequence (O15393 whole entry): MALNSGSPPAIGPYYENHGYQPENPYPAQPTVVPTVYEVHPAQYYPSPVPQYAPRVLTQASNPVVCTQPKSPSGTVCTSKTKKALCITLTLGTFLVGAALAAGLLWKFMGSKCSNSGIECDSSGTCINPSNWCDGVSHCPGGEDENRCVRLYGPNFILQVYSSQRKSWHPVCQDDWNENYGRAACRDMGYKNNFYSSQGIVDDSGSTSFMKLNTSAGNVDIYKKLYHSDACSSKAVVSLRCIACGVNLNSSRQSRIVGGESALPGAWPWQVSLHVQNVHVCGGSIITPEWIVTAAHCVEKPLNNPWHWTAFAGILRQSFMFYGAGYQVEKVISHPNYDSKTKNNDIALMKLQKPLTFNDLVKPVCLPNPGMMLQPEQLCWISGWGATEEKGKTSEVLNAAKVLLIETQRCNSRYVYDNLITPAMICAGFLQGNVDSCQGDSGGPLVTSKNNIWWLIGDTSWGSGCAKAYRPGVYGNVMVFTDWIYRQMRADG

Compound: CC[C@H](C)[C@@H]1NC(=O)[C@@H]2CSSC[C@H](NC(=O)[C@H](CCCNC(=N)N)NC(=O)[C@@H]3CSSC[C@H](NC1=O)C(=O)N[C@@H]([C@@H](C)O)C(=O)N[C@@H](CCCNC(=N)N)C(=O)NCC(=O)N[C@@H](Cc1ccccc1)C(=O)N3)C(=O)N[C@@H](CC(C)C)C(=O)N[C@H]1CSSC[C@H](NC(=O)[C@H](C(C)C)NC(=O)CNC(=O)[C@H](CCCNC(=N)N)NC(=O)[C@H](CCCNC(=N)N)NC1=O)C(=O)N[C@@H](CCCNC(=N)N)C(=O)N2 [Peptide 1] (cyclo(GFCRCLCRRGVCRCICTR); disulfide 3-16, 5-14, 7-12)
- AUCτ on Day 7 lower than AUC0-∞ on Day 1 ([1]; 5 mg/kg group): 22%
- λz ([1]; 5 mg/kg i.v., Day 1): 0.056 h⁻¹
- λz ([1]; 5 mg/kg/day i.v., Day 7): 0.104 h⁻¹
- AUCτ on Day 7 lower than AUC0-∞ on Day 1 ([1]; 10 mg/kg group): 19%
- λz ([1]; 10 mg/kg i.v., Day 1): 0.148 h⁻¹
- λz ([1]; 10 mg/kg/day i.v., Day 7): 0.133 h⁻¹
- λz ([1]; 20 mg/kg i.v., Day 1): 0.221 h⁻¹
- plasma levels during recovery period ([1]; Day 25, all but one rat): undetectable
- AUC [2, 5]: 12300 ng·h/mL
- AUC(0-inf) [2, 5]: 12500 ng·h/mL
- MRT [2, 5]: 2.62 h
- clearance [2, 5]: 6.67 mL/min/kg
- Cmax ([2]; both sexes, CD-1, mouse, plasma, iv, single 5 mg/kg i.v. bolus, estimate (SE)): 8920 ng/mL
- Vd ([2]; both sexes, CD-1, mouse, plasma, iv, single 5 mg/kg i.v. bolus, read-out: Vss): 1.05 L/kg
- λz ([2]; single 5 mg/kg i.v. bolus): 0.114 h⁻¹
- elimination phase half-life ([2]; single i.v. bolus): 6.05 h
- IC50 (TMPRSS2): 3.12 to 3.84 µM
- AUC (in vivo [3]; 5 mg/kg): 15000 ng·h/mL
- AUC(0-inf) (in vivo [3]; 5 mg/kg): 15900 ng·h/mL
- Cmax (in vivo [3]; 5 mg/kg): 7470 ng/mL
- MRT (in vivo [3]; 5 mg/kg): 4.37 h
- Vd (in vivo [3]; 5 mg/kg): 1.46 L/kg
- clearance (in vivo [3]; 5 mg/kg): 5.57 mL/min/kg
- AUC (in vivo [3]; 5 mg/kg/day): 12500 ng·h/mL
- AUC(0-inf) (in vivo [3]; 5 mg/kg/day): 12700 ng·h/mL
- Cmax (in vivo [3]; 5 mg/kg/day): 10100 ng/mL
- MRT (in vivo [3]; 5 mg/kg/day): 2.92 h
- Vd (in vivo [3]; 5 mg/kg/day): 1.17 L/kg
- clearance (in vivo [3]; 5 mg/kg/day): 6.68 mL/min/kg
- AUC (in vivo [3]; 10 mg/kg): 41700 ng·h/mL
- AUC(0-inf) (in vivo [3]; 10 mg/kg): 42100 ng·h/mL
- Cmax (in vivo [3]; 10 mg/kg): 27500 ng/mL
- MRT (in vivo [3]; 10 mg/kg): 2.88 h
- Vd (in vivo [3]; 10 mg/kg): 0.691 L/kg
- clearance (in vivo [3]; 10 mg/kg): 4 mL/min/kg
- AUC (in vivo [3]; 10 mg/kg/day): 34100 ng·h/mL
- AUC(0-inf) (in vivo [3]; 10 mg/kg/day): 34700 ng·h/mL
- Cmax (in vivo [3]; 10 mg/kg/day): 21800 ng/mL
- MRT (in vivo [3]; 10 mg/kg/day): 3.45 h
- Vd (in vivo [3]; 10 mg/kg/day): 1.01 L/kg
- clearance (in vivo [3]; 10 mg/kg/day): 4.88 mL/min/kg
- AUC (in vivo [3]; 20 mg/kg): 127000 ng·h/mL
- AUC(0-inf) (in vivo [3]; 20 mg/kg): 127000 ng·h/mL
- Cmax (in vivo [3]; 20 mg/kg): 35400 ng/mL
- MRT (in vivo [3]; 20 mg/kg): 4.81 h
- Vd (in vivo [3]; 20 mg/kg): 0.758 L/kg
- clearance (in vivo [3]; 20 mg/kg): 2.62 mL/min/kg
- NOAEL at 7 days (in vivo [4]): 10 mg/kg/day
